Assay results as given in PMC3092291 (2011).

Target: T1, IspH (LytB) (Aquifex aeolicus, UniProt O67625)
T1 sequence (O67625 1-289): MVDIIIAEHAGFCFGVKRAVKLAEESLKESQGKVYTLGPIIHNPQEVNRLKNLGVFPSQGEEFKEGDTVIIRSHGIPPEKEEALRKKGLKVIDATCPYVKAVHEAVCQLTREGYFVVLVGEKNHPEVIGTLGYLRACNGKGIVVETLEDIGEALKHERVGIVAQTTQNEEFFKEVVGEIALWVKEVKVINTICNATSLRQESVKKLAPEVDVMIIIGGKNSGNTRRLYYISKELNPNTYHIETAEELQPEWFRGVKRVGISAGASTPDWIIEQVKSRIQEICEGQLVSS
Test: HYSCORE/CW-EPR with […] and […]-labeled IspH
Format: biochemical

BPH-293 [compound 7]
IC50: 38 µM
